Literature values as cited in patent US8686153B2, “Lenalidomide salts” (Synthon B.V., priority 2009, dated 2014).

SMILES: Nc1cccc2c1CN(C1CCC(=O)NC1=O)C2=O (racemic) [Lenalidomide, 3-(4-amino-1-oxo-3H-isoindol-2-yl)piperidine-2,6-dione]
- solubility at pH 4.6, 6.8 and 7.4: 0.4-0.5 mg/ml
